Results taken from article PMC11270681, “Synthesis and Systematic Investigation of Lepidiline A and Its Gold(I), Silver(I), and Copper(I) Complexes Using In Vitro Cancer Models and Multipotent Stem Cells” (ACS Omega, 2024).
Values joined by “and” are separate entries in the source; they are usually repeats but may differ in a detail not shown here. Equal values may be shown once.

Columns and labels:
IGROV-1 = test: Cytotoxicity (PrestoBlue), ovarian cancer line; assay type: cell-based; details: IGROV-1, 72 h incubation
Procedure: (§1) OVCAR-3 (OVC-3) and OVCAR-8 (OVC-8) ovarian serous adenocarcinomas, IGROV-1 ovarian endometrioid adenocarcinoma, OVCAR-5 (OVC-5) upper gastrointestinal carcinoma, MDA-MB-231 breast adenocarcinoma, and MCF-7 and T-47D invasive breast carcinomas were purchased from the Developmental Therapeutic Program of the National Cancer Institute (NIH, USA) and were cultured in an RPMI medium (Thermo Fisher). Mes-Sa and Mes-Sa/Dx5 uterine sarcoma cell lines were purchased from American Type Culture Collection (ATCC) and were kept in DMEM (Thermo Fisher). Mes-Sa B1 was transfected with the human MDR1 gene, and Mes-Sa mCherry, Mes-Sa B1 mOrange, and Mes-Sa/Dx5 eGFP were engineered to stably express the respective fluorescent proteins previously.[51] Culture media for cancer cells were supplemented with 10% fetal bovine serum, 2 mM L-glutamine, and 100 units/mL penicillin and 100 μg/mL streptomycin (Thermo Fisher). The adipose tissue and bone marrow-derived mesenchymal stem cells (AD-MSC and BM-MSC) were described previously[37] and were kept in DMEM-F12 (Gibco) supplemented with 10% fetal bovine serum, L-glutamine (Thermo Fisher), 0.1% gentamicin (Gibco, 50 mg/mL), and 16 ng/mL fibroblast growth factor 2 (Peprotech). Cells were kept at 37 °C under 5% CO2 and were negative for mycoplasma infection.
(§2) Cytotoxicities of the nonfluorescent cancer cells were assessed with a PrestoBlue cell viability reagent (Thermo Fisher). Briefly, 2500 cells/well were seeded on 384-well plates; then, the next-day drugs were added. After 72 h of incubation, PrestoBlue was added in a 10% final concentration, and after an hour of additional incubation, plates were measured with a PerkinElmer EnSpire plate reader at 555 nm/585 nm excitation/emission wavelengths. Stem cells were seeded on 96-well plates at a density of 5000 cells/well, and the following day, drugs were added for 96 h of incubation; then, viability was assessed with 10% PrestoBlue diluted in PBS. Fluorescent cancer cells were admixed before seeding on 384-well plates at an 800 cells/well density each, thus altogether 2400 cells/well. Drugs were added the following day, and the intensity of the fluorescent proteins was measured after 144 h of incubation at the respective fluorescent channels (excitation/emission, eGFP: 485 nm/510 nm; mCherry: 585 nm/610 nm; mOrange: 545 nm/567 nm). pIC50 values were calculated by a custom program written by Judit Sessler in C#. IC50 values and standard deviation were calculated from average pIC50 values from at least 3 independent measurements.

OVC-3 = test: Cytotoxicity (PrestoBlue), ovarian cancer line; assay type: cell-based; details: OVC-3, 72 h incubation
Procedure: as §1, §2

OVC-8 = test: Cytotoxicity (PrestoBlue), ovarian cancer line; assay type: cell-based; details: OVC-8, 72 h incubation
Procedure: as §1, §2

OVC-5 = test: Cytotoxicity (PrestoBlue), upper gastrointestinal cancer line; assay type: cell-based; details: for IC50: OVC-5, 72 h incubation, PrestoBlue
Procedure: as §1, §2

MCF-7 [1] = test: Cytotoxicity (PrestoBlue), breast cancer line; assay type: cell-based
Procedure: as §1, §2

MDA-MB-231 = test: Cytotoxicity (PrestoBlue), breast cancer line; assay type: cell-based; details: MDA-MB-231, 72 h incubation
Procedure: as §1, §2

T-47D [2] = test: Cytotoxicity (PrestoBlue), breast cancer line; assay type: cell-based; details: 72 h incubation
Procedure: as §1, §2

Mes-Sa [3] = test: Cytotoxicity, uterine sarcoma parental line; assay type: cell-based; details: fluorescent protein intensity after 144 h
Procedure: as §1, §2

Mes-Sa B1 = test: Cytotoxicity, MDR1-transfected uterine sarcoma line; assay type: cell-based; details: Mes-Sa B1 (MDR1 transfected, ABCB1 expressing), fluorescent protein intensity after 144 h
Procedure: as §1, §2

Mes-Sa/Dx5 = test: Cytotoxicity, doxorubicin-selected MDR uterine sarcoma line; assay type: cell-based; details: Mes-Sa/Dx5 (doxorubicin selected, ABCB1 expressing), fluorescent protein intensity after 144 h
Procedure: as §1, §2

AD-MSC = test: Cytotoxicity (PrestoBlue), adipose-derived mesenchymal stem cells; assay type: cell-based; details: 96 h incubation
Procedure: as §1, §2

BM-MSC = test: Cytotoxicity (PrestoBlue), bone marrow-derived mesenchymal stem cells; assay type: cell-based; details: 96 h incubation
Procedure: as §1, §2

im. BM-MSC = test: Cytotoxicity (PrestoBlue), immortalized bone marrow MSC; assay type: cell-based; details: 96 h incubation
Procedure: as §1, §2

[4] = system: 3 ovarium cancer lines (IGROV-1, OVC-3, and OVC-8); test: Cytotoxicity, range over 3 ovarium cancer lines; assay type: cell-based; details: IGROV-1, OVC-3, OVC-8
Procedure: as §1, §2

[5] = system: Bone marrow MSCs (BM-MSC); test: Cytotoxicity, range over bone marrow MSCs; assay type: cell-based; details: BM-MSC and immortalized BM-MSC
Procedure: as §1, §2

MCF-7 [6] = test: H2DCFDA intracellular ROS production assay; assay type: cell-based; details: MCF-7, 50 μM, 4 h incubation
Procedure: (§3) To assess intracellular ROS production, we used a H2DCFDA cellular ROS assay kit (ab113851, Abcam) according to the manufacturer’s instructions. Briefly, 20,000 cells were seeded on 96-well plates. On the following day, cells were washed, and H2DCFDA solution, prepared by avoiding direct light, was added for 45 min. Next, cells were washed, and 50 μM samples of test compounds were aspirated on the cells in a complete and phenol red-free medium (FluoroBrite, Thermo Fisher). At each hour, fluorescence of 2′,7′-dichlorofluorescein (DCF) was measured at 484 nm/535 nm excitation/emission wavelengths. Values were normalized to 0 h measurements. Values indicate at least 3 independent measurements.

Mes-Sa [7] = test: H2DCFDA intracellular ROS production assay; assay type: cell-based; details: 50 μM, 4 h incubation
Procedure: as §3

T-47D [8] = test: H2DCFDA intracellular ROS production assay; assay type: cell-based; details: 50 μM, 4 h incubation
Procedure: as §3

[9] = system: panel of cancer cell lines of various origins; design: method as in PMID 12932133; details: up to 10 μg/mL (approximately 60 μM for lepidiline A); cited from earlier work
HL-60 leukemia line = system: HL-60 leukemia line; design: method as in PMID 34808062; details: cited from earlier work
[10] = system: 3 breast cancer cell lines (MDA-MB-231, MCF-7 and T-47D); test: Cytotoxicity, range over 3 breast cancer cell lines; assay type: cell-based; details: MDA-MB-231, MCF-7, T-47D
Procedure: as §1, §2

MSCs = test: Cytotoxicity, range over MSCs; assay type: cell-based; details: AD-MSC, BM-MSC, immortalized BM-MSC
Procedure: as §1
(§4) Cytotoxicities of the nonfluorescent cancer cells were assessed with a PrestoBlue cell viability reagent (Thermo Fisher). Briefly, 2500 cells/well were seeded on 384-well plates; then, the next-day drugs were added. After 72 h of incubation, PrestoBlue was added in a 10% final concentration, and after an hour of additional incubation, plates were measured with a PerkinElmer EnSpire plate reader at 555 nm/585 nm excitation/emission wavelengths. Stem cells were seeded on 96-well plates at a density of 5000 cells/well, and the following day, drugs were added for 96 h of incubation; then, viability was assessed with 10% PrestoBlue diluted in PBS. […] IC50 values and standard deviation were calculated from average pIC50 values from at least 3 independent measurements.

cancer lines = test: Cytotoxicity, range over cancer lines; assay type: cell-based; details: all cancer lines tested; read-out: IC50 range over cancer lines
Procedure: as §1, §4

[11] = Stability in serum-free culture medium by HPLC-UV; assay type: physicochemical; details: for AUC (HPLC-UV), single measurements 1-5 / AUC (HPLC-UV), average: serum-free culture medium
Procedure: Stability of the metal complexes in solution was measured in serum-free culture medium. The compounds were dissolved in DMSO right before the experiment. Solutions of Cu-LA and Ag-LA contained 1% final volume of DMSO, while Au-LA contained 30% DMSO. Samples were taken right after dilution, and after 1 h, 2 h, 4 h, 8 h, 16 h, 32 and 48 h, and measured by HPLC-UV.

MCF-7 breast cancer line = system: MCF-7 breast cancer line; design: method as in PMID 34808062; details: cited from earlier work

## Cc1c(C)[n+](Cc2ccccc2)cn1Cc1ccccc1.[Cl-] [LA, 1,3-Dibenzyl-4,5-dimethyl-imidazol-1-ium-chloride]
IGROV-1; Homo sapiens
  IC50: 59.9 µM
OVC-3
  IC50: 48.1 µM
OVC-8
  IC50: 57.2 µM
OVC-5
  IC50: > 200 µM
OVC-5; OVC-5 vs ovarian cancer lines
  Lower susceptibility of OVC-5 compared to the ovarian cancer lines: 4 fold
MCF-7 [1]; Homo sapiens, MCF7, MCF-7, 72 h incubation
  IC50: 71.7 µM
MDA-MB-231; Homo sapiens
  IC50: 91.8 µM
T-47D [2]; Homo sapiens, T47D
  IC50: 16.1 µM
Mes-Sa [3]; Homo sapiens
  IC50: 27.8 µM
Mes-Sa B1; Homo sapiens
  IC50: > 200 µM
Mes-Sa/Dx5; Homo sapiens, MES-SA/Dx5, 144 h
  IC50: > 200 µM
AD-MSC; listed as Lepidiline A
  IC50: 184 µM
AD-MSC; Mesenchymal stem cells, 96 h
  IC50: 184 µM
BM-MSC; BMMSC
  IC50: 69.1 µM
im. BM-MSC; BMMSC
  IC50: 47.6 µM
[4]; Homo sapiens
  IC50: 48.1 to 72.9 µM
[5]; BMMSC
  IC50: 48 to 98 µM
MCF-7 [6]
  Intracellular ROS production compared to the medium: did not provoke extra ROS production
Mes-Sa [7]
  Intracellular ROS production compared to the medium: did not provoke extra ROS production
T-47D [8]
  Intracellular ROS production compared to the medium: did not provoke extra ROS production
[9]
  Toxicity against a panel of cancer cell lines: low or no toxicity
HL-60 leukemia line
  IC50: ~30 µM

## Cc1c(C)n(Cc2ccccc2)[c](=[Au][Cl])n1Cc1ccccc1 [Au-LA, Chloro-(1,3-dibenzyl-4,5-dimethyl-imidazol-2-ylidene)gold]
IGROV-1
  IC50: 10.5 µM
OVC-3
  IC50: 16.6 µM
OVC-8
  IC50: 12.7 µM
OVC-5
  IC50: 24.8 µM
MCF-7 [1]; MCF-7, 72 h incubation
  IC50: 9.49 µM
MDA-MB-231
  IC50: 9.58 µM
T-47D [2]
  IC50: 7.71 µM
Mes-Sa [3]
  IC50: 9.09 µM
Mes-Sa B1
  IC50: 12.8 µM
Mes-Sa/Dx5
  IC50: 13.4 µM
AD-MSC
  IC50: 5.69 µM
BM-MSC
  IC50: 7.54 µM
im. BM-MSC
  IC50: 5.7 µM
[4]
  IC50: 10.5 to 17.4 µM
[10]
  IC50: 5.8 to 12 µM
[5]
  IC50: 5.7 to 15.7 µM
MSCs
  IC50: 5.7 to 7.5 µM
Cancer lines
  IC50: 7.7 to 24.8 µM
Mes-Sa [7]
  More ROS compared to the medium: ~50%
[11]; 0 h
  AUC (HPLC-UV), single measurements 1-5: 700 and 697 and 698
[11]; 0 h, Cu-LA, Ag-LA 1% DMSO, Au-LA 30% DMSO
  AUC (HPLC-UV), average: 698
[11]; 1 h
  AUC (HPLC-UV), average: 677
  AUC (HPLC-UV), single measurements 1-5: 690 and 685 and 674 and 672 and 665
[11]; 2 h
  AUC (HPLC-UV), average: 643
  AUC (HPLC-UV), single measurements 1-5: 645 and 644 and 640 and 643
[11]; 4 h
  AUC (HPLC-UV), average: 606
  AUC (HPLC-UV), single measurements 1-5: 614 and 605 and 604 and 603
[11]; 8 h
  AUC (HPLC-UV), average: 456
  AUC (HPLC-UV), single measurements 1-5: 463 and 457 and 456 and 454 and 451
[11]; 16 h
  AUC (HPLC-UV), average: 351
  AUC (HPLC-UV), single measurements 1-5: 354 and 351 and 353 and 350 and 345
[11]; 32 h
  AUC (HPLC-UV), average: 177
  AUC (HPLC-UV), single measurements 1-5: 180 and 173 and 174 and 172 and 187
[11]; 48 h
  AUC (HPLC-UV), average: 141
  AUC (HPLC-UV), single measurements 1-5: 142 and 143 and 140 and 135
[11]; HPLC-UV, observed 48 h
  Stability in serum-free culture medium: decreased after 4 h

## COc1cccc(C[n+]2cn(Cc3ccccc3)c(C)c2C)c1 [lepidiline C]
HL-60 leukemia line
  IC50: ~30 µM
MCF-7 breast cancer line
  IC50: 75 µM

## Cc1c(C)[n+](Cc2ccccc2)c(C)n1Cc1ccccc1 [lepidiline B, reference compound]
[9]
  Toxicity against a panel of cancer cell lines: low or no toxicity
HL-60 leukemia line
  IC50: 3.8 µM
